# Values joined by “and” are separate entries in the source; they are usually repeats but may differ in a detail not shown here. Identical values can stand only once.
# What was measured:
# HIV-1 protease [1] = target: T1, HIV-1 protease (Human immunodeficiency virus type 1 group M subtype B, UniProt P04585); experiment: biochemical; details: for inhibition at 0.123 µM: read-out: HIV-1 Protease % Inhib, dose 0.123 uM; for inhibition at 0.37 µM: read-out: HIV-1 Protease % Inhib, dose 0.370 uM; for inhibition at 1.1 µM: read-out: HIV-1 Protease % Inhib, dose 1.100 uM; for inhibition at 3.3 µM: read-out: HIV-1 Protease % Inhib, dose 3.300 uM; for inhibition at 10 µM: read-out: HIV-1 Protease % Inhib, dose 10.000 uM; for inhibition at 30 µM: read-out: HIV-1 Protease % Inhib, dose 30.000 uM
# Summary of the method: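 Biotinylated, FITC-labeled peptide substrate (20 μl of 0.2 μM) incubated with HIV-1 protease (10 μl of 0.1 μM) and compound in 0.1 M sodium acetate pH 5.5, 1.0 M NaCl, 0.05% NP-40, 1 h, room temperature, dark. Streptavidin beads then capture uncleaved substrate; filtered labeled product read by fluorescence, giving percent inhibition.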
# HIV-1 protease [2] = target: T1, HIV-1 protease; experiment: biochemical; details: read-out: HIV-1 FITC KI
# Summary of the method: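 Ki from two-fold serial inhibitor dilutions (24–48 concentrations) with 40 nM HIV-1 protease stock and 200 μM substrate stock, 90 min at room temperature; stopped with avidin beads. Reference inhibitor run in parallel; Ki by nonlinear least-squares fit.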
Structure (SMILES),inhibition at 0.123 µM (HIV-1 protease [1]) [%],inhibition at 0.37 µM (HIV-1 protease [1]) [%],inhibition at 1.1 µM (HIV-1 protease [1]) [%],inhibition at 3.3 µM (HIV-1 protease [1]) [%],inhibition at 10 µM (HIV-1 protease [1]) [%],inhibition at 30 µM (HIV-1 protease [1]) [%],Ki (HIV-1 protease [2]),HIV-1 Protease % Inhib (HIV-1 protease [1]; dose 0.123 uM) [%],HIV-1 Protease % Inhib (HIV-1 protease [1]; dose 0.370 uM) [%],HIV-1 Protease % Inhib (HIV-1 protease [1]; dose 1.100 uM) [%],HIV-1 Protease % Inhib (HIV-1 protease [1]; dose 3.300 uM) [%],HIV-1 Protease % Inhib (HIV-1 protease [1]; dose 10.000 uM) [%],HIV-1 Protease % Inhib (HIV-1 protease [1]; dose 30.000 uM) [%]
"CCC(c1cccc(NC(=O)CCNC(=O)OC(C)(C)C)c1)c1c(O)c2c(oc1=O)CCCCCC2 (centres unmarked) [Example 219, Carbamic acid, [3-[[3-[1-(5,6,7,8,9,10-hexahydro4-hydroxy-2-oxo-2H-cycloocta[b]pyran-3-yl)propyl]phenyl]amino]-3-oxopropyl]-, 1,1-dimethylethyl ester]",52.1,81,92.5,100,109,97.3,10.4 nM,,,,,,
"CCOC(=O)Nc1cccc(C(c2c(O)c3c(oc2=O)CCCCCC3)C2CC2)c1 (centres unmarked) [Example 226, [3-[Cyclopropyl(5,6,7,8,9,10-hexahydro4-hydroxy-2-oxo-2H-cycloocta[b]pyran-3-yl)methyl]phenyl]-, ethyl ester carbamic acid]",14.2,43.7,74.1,87.6,101,104,18.9 nM,,,,,,
"O=c1oc2c(c(O)c1[C@H](c1ccccc1)C1CC1)CCCCCC2 [Example 229, (-)-(S)-3-(Cyclopropylphenylmethyl)-5,6,7,8,9,10-hexahydro-4-hydroxy-2H-cyclo[b]pyran-2-one]",16.9,54.3,88.8,103,108,105,10.6 nM and 11.9 nM and 16.2 nM,,,,,,
"O=c1oc2c(c(O)c1[C@H](c1cccc(NS(=O)(=O)c3ccc(F)cc3)c1)C1CC1)CCCCCC2 [Example 252, (-)-N-[3-[Cyclopropyl(5,6,7,8,9,10-hexahydro4-hydroxy-2-oxo-2H-cycloocta[b]pyran-3-yl)methyl]phenyl]-4-fluoro-benzenesulfonamide]",100,108,111,112,116,109,1.6 nM and 1.1 nM,,,,,,
"Cn1cnc(S(=O)(=O)Nc2cccc([C@@H](c3c(O)c4c(oc3=O)CCCCCC4)C3CC3)c2)c1 [Example 254, (-)-N-[3-[Cyclopropyl(5,6,7,8,9,10-hexahydro-4-hydroxy-2-oxo-2H-cycloocta[b]pyran-3-yl)methyl]phenyl]-1-methyl-1H-imidazole-4-sulfonamide]",,,,,,,0.65 nM,82.28,97.98,107.75,111.05,112.1,103.1
"O=c1oc2c(c(O)c1[C@H](c1cccc(NS(=O)(=O)c3cccc4cccnc34)c1)C1CC1)CCCCCC2 [Example 256, (-)-N-[3-[Cyclopropyl(5,6,7,8,9,10-hexahydro-4-hydroxy-2-oxo-2H-cycloocta[b]pyran-3-yl)methyl]phenyl]-8-quinolinesulfonamide]",82.5,91.3,99,95,101,96.1,0.42 nM,,,,,,
"O=c1oc2c(c(O)c1[C@@H](c1cccc(NS(=O)(=O)c3cccc4cccnc34)c1)C1CC1)CCCCCC2 [Example 260, (+)-N-[3-[Cyclopropyl(5,6,7,8,9, 10-hexahydro-4-hydroxy-2-oxo-2H-cycloocta[b]pyran-3-yl)methyl]phenyl]-8-quinolinesulfonamide]",73.8,91.7,99,106,102,96.9,0.93 nM,,,,,,
"CC(C)(C)c1ccc(S(=O)(=O)Nc2cccc(C(c3c(O)c4c(oc3=O)CCCCCC4)C3CC3)c2)cc1 (centres unmarked) [Example 265, N-[3-[Cyclopropyl(5,6,7,8,9,10-hexahydro-4hydroxy-2-oxo-2H-cycloocta[b]pyran-3-yl)methyl]phenyl]-4-(1,1-dimethylethyl)-benzenesulfonamide]",25.3,54.8,76.9,86.1,100,98.3,31.5 nM,,,,,,
"O=c1oc2c(c(O)c1C(c1cccc(NS(=O)(=O)c3ccc(Cl)c(Cl)c3)c1)C1CC1)CCCCCC2 (centres unmarked) [Example 269, 3,4-Dichloro-N-[3-[cyclopropyl(5,6,7,8,9,10-hexahydro-4-hydroxy-2-oxo-2H-cycloocta[b]pyran-3-yl)methyl]phenyl]-benzenesulfonamide]",77.1,95.7,112,114,125,114,5.3 nM and 2.9 nM,,,,,,
"O=c1oc2c(c(O)c1C(c1cccc(NS(=O)(=O)c3c(F)c(F)c(F)c(F)c3F)c1)C1CC1)CCCCCC2 (centres unmarked) [Example 278, N-[3-[Cyclopropyl(5,6,7,8,9,10-hexahydro-4-hydroxy-2-oxo-2H-cycloocta[b]pyran-3-yl)methyl]phenyl]-2,3,4,5,6-pentafluoro-benzenesulfonamide]",36.3,78.2,94.7,101,102,110,13.6 nM,,,,,,
"O=c1oc2c(c(O)c1C(c1cccc(NS(=O)(=O)c3cccc(C(F)(F)F)c3)c1)C1CC1)CCCCCC2 (centres unmarked) [Example 280, N-[3-[Cyclopropyl(5,6,7,8,9,10-hexahydro-4-hydroxy-2-oxo-2H-cycloocta[b]pyran-3-yl)methyl]phenyl]-3-(trifluoromethyl)-benzenesulfonamide]",69.8,95.1,101,110,110,114,3 nM,,,,,,
"O=c1oc2c(c(O)c1C(c1cccc(NS(=O)(=O)c3ccccc3F)c1)C1CC1)CCCCCC2 (centres unmarked) [Example 281, N-[3-[Cyclopropyl(5,6,7,8,9,10-hexahydro-4-hydroxy-2-oxo-2H-cycloocta[b]pyran-3-yl)methyl]phenyl]-2-fluoro-benzenesulfonamide]",55.5,93.5,99.3,109,105,101,10.6 nM,,,,,,
O=c1oc2c(c(O)c1C(c1cccc(NS(=O)(=O)c3cc(Cl)cc(Cl)c3O)c1)C1CC1)CCCCCC2 (centres unmarked) [Example 284],37.5,77,99.8,107,107,104,12.2 nM,,,,,,
"O=c1oc2c(c(O)c1C(c1cccc(NS(=O)(=O)c3ccccc3C(F)(F)F)c1)C1CC1)CCCCCC2 (centres unmarked) [Example 286, N-[3-[Cyclopropyl(5,6,7,8,9,10-hexahydro4-hydroxy-2-oxo-2H-cycloocta[b]pyran-3-yl)methyl]phenyl]-2-(trifluoromethyl)-benzenesulfonamide]",30,62.4,83.3,92.3,97.4,93.7,21.4 nM,,,,,,
"O=c1oc2c(c(O)c1C(c1cccc(NS(=O)(=O)c3cccc4nonc34)c1)C1CC1)CCCCCC2 (centres unmarked) [Example 290, N-[3-[Cyclopropyl(5,6,7,8,9,10-hexahydro-4-hydroxy-2-oxo-2H-cycloocta[b]pyran-3-yl)methyl]phenyl]-4-benzofurazansulfonamide]",90.3,115,123,119,126,114,2.7 nM,,,,,,
"Cc1nn(C)c(Cl)c1S(=O)(=O)Nc1cccc(C(c2c(O)c3c(oc2=O)CCCCCC3)C2CC2)c1 (centres unmarked) [Example 294, 5-Chloro-N-[3-[cyclopropyl(5,6,7,8,9,10-hexahydro-4-hydroxy-2-oxo-2H-cycloocta[b]pyran-3-yl)methyl]phenyl]-1,3-dimethyl-1H-pyrazole-4-sulfonamide]",,20.9,52.9,81.1,94.7,110,139 nM,,,,,,
"O=C(NCc1ccc(S(=O)(=O)Nc2cccc(C(c3c(O)c4c(oc3=O)CCCCCC4)C3CC3)c2)s1)c1ccccc1 (centres unmarked) [Example 296, N-[[5-[[[3-[Cyclopropyl(5,6,7,8,9,10-hexahydro-4-hydroxy-2-oxo-2H-cycloocta[b]pyran-3-yl)methyl]phenyl]amino]sulfonyl]-2-thienyl]methyl]-benzamide]",14.6,74.8,95.5,104,108,114,24 nM,,,,,,
"O=c1oc2c(c(O)c1C(c1cccc(NS(=O)(=O)c3cc(S(=O)(=O)c4ccccc4)cs3)c1)C1CC1)CCCCCC2 (centres unmarked) [Example 298, N-[3-[Cyclopropyl(5,6,7,8,9,10-hexahydro-4-hydroxy-2-oxo-2H-cycloocta[b]pyran-3-yl)methyl]phenyl]4-(phenylsulfonyl)-2-thiophenesulfonamide]",67.4,84.6,94.6,97.5,101,100,2.5 nM,,,,,,
